# In paper PMC11404848, “Stenotrophomonas maltophilia uses a c-di-GMP module to sense the mammalian body temperature during infection” (PLOS Pathogens, 2024):
# Target: T1, BtsD^Δ(SP-GGDEF)
# T1 construct: N-terminal region; signal peptide (1-42) and GGDEF domain (836-1008) deleted; borders derived from printed deletions; expressed in E. coli BL21(DE3), His6 tag kept or GST tag cut
# Experiment: MicroScale Thermophoresis
# Format: binding, Stenotrophomonas maltophilia
# Conditions: PBS pH 6.5; protein labelled with Red NHS dye
# From the text: MicroScale Thermophoresis on BtsD^Δ(SP-GGDEF) | BtsD^Δ(SP-GGDEF) directly bound with c-di-GMP and Sensor^BtsK
compound,measurement,value
Nc1nc2c(ncn2[C@@H]2O[C@@H]3COP(=O)(O)O[C@H]4[C@@H](O)[C@H](n5cnc6c(=O)[nH]c(N)nc65)O[C@@H]4COP(=O)(O)O[C@H]3[C@H]2O)c(=O)[nH]1 [c-di-GMP],Kd,8.72 ± 4.12 µM
